The species entered for data set [1] is Rattus norvegicus. As to the kind of experiment: Displacement of [3H]quinuclidinyl benzilate from Wistar rat cortex muscarinic AChR at 1 uM by liquid scintillation counting analysis relative to control. The class given is tissue-based.
The target of data set [2] is Estrogen receptor beta (Homo sapiens) (UniProt Q92731). Briefly: Binding affinity to Estrogen receptor beta (unknown origin) at 1 uM by displacement assay relative to control.
In data set [3] the target is T1, Histamine H3 receptor (Homo sapiens, UniProt Q9Y5N1). As to the kind of experiment: Antagonist activity at human histamine H3 receptor expressed in CHO-K1 cells assessed as inhibition of imetit-stimulation ERK1/2 phosphorylation by ELISA analysis. In kind it is cell-based.
The target in data set [4] is Histamine H1 receptor (Homo sapiens) (UniProt P35367). As to the kind of experiment: Displacement of [3H]pyrilamine from recombinant human histamine H1 receptor expressed in CHO-K1 cell membrane at 1 uM incubated for 30 mins by liquid scintillation counter analysis relative to control. In kind it is cell membranes. Background: In a radioligand displacement assay an active substance lowers the binding of a labelled ligand.

Data set [5] addresses T2, Estrogen receptor (Homo sapiens) (UniProt P03372).
T2 sequence (whole entry): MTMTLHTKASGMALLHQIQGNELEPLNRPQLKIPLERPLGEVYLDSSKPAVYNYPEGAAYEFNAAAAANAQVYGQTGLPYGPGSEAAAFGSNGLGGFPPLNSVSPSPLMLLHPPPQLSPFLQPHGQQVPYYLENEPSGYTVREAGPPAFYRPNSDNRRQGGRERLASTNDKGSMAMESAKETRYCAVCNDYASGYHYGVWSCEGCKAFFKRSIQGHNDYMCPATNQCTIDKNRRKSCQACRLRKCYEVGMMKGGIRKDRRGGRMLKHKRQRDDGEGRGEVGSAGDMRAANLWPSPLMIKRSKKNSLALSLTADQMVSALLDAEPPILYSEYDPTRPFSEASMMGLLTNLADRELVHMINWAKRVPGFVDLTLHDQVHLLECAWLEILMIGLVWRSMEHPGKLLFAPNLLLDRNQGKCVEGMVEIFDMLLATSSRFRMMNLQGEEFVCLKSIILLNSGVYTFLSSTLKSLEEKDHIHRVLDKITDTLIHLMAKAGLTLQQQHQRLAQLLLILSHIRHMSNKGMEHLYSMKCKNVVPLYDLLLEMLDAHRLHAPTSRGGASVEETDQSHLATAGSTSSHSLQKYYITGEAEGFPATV
As to the kind of experiment: Binding affinity to Estrogen receptor alpha (unknown origin) at 1 uM by displacement assay relative to control.

Data set [6] concerns the target Histamine H3 receptor (Rattus norvegicus, UniProt Q9QYN8). As to the kind of experiment: Displacement of N-alpha-[methyl-3H]-methylhistamine dihydrochloride from Sprague-Dawley rat brain membrane histamine H3 receptor assessed as inhibition constant incubated for 30 mins by liquid scintillation counting analysis. In kind it is cell membranes.
Data set [7] in a line: Displacement of [3H]quinuclidinyl benzilate from Wistar rat cortex muscarinic AChR assessed as inhibition constant by liquid scintillation counting analysis. In kind it is tissue-based.
Data set [8] has as its target Histamine H2 receptor (Homo sapiens) (UniProt P25021). As to the kind of experiment: Displacement of [3H]tiotidine from recombinant human histamine H2 receptor expressed in CHO-K1 cell membrane at 1 uM incubated for 45 mins by Scintillation counter analysis relative to control. The class given is cell membranes.
The target of data set [9] is Histamine H4 receptor (Homo sapiens) (UniProt Q9H3N8). As to the kind of experiment: Displacement of [3H]histamine from human histamine H4 receptors expressed in CHO-K1 cell membrane at 1 uM incubated for 30 mins by scintillation counter analysis relative to control. The class given is cell membranes.
For data set [10], the target named is T1, Histamine H3 receptor. Briefly: Inverse agonist activity at recombinant human histamine H3 receptor expressed in CHO-K1 cells preincubated for 10 mins followed by [35S]GTPgammaS addition and measured after 60 mins by TopCount NXT based scintillation analysis. The class given is cell-based. In general terms: GTPγS resists hydrolysis and so accumulates on activated G proteins.

In data set [11] the target is T1, Histamine H3 receptor. As to the kind of experiment: Displacement of N-alpha-[methyl-3H]-methylhistamine dihydrochloride from recombinant human histamine H3 receptor expressed in CHO-K1 cells assessed as inhibition constant incubated for 30 mins by liquid scintillation analysis. In kind it is cell-based.
Data set [12] deals with Histamine H3 receptor (Rattus norvegicus) (UniProt Q9QYN8). As to the kind of experiment: Displacement of N-alpha-[methyl-3H]-methylhistamine dihydrochloride from Sprague-Dawley rat brain membrane histamine H3 receptor at 300 nM incubated for 30 mins by liquid scintillation counting analysis relative to control. In kind it is cell membranes.
Data set [13] in a line: Selectivity index, ratio of Ki for displacement of [3H]quinuclidinyl benzilate from Wistar rat cortex muscarinic AChR to Ki for N-alpha-[methyl-3H]-methylhistamine dihydrochloride from Sprague-Dawley rat brain membrane histamine H3 receptor.
Data set [14] can be described thus: Stability in human microsomes. In kind it is ADME, Microsome.
Data set [15] can be described thus: Terminal half-life in Wistar rat brain at 3 mg/kg, po or iv measured upto 5 hrs by HPLC-MS/MS analysis. The settings on record: read-out: beta t1/2 (converted). The class given is ADME, organism-based.
Data set [16] is described as follows: Tmax in Wistar rat at 3 mg/kg, po or iv measured upto 5 hrs by HPLC-MS/MS analysis. In kind it is ADME, organism-based. The note with it: in vivo.
Data set [17] in a line: Terminal half-life in Wistar rat plasma at 3 mg/kg, po or iv measured upto 5 hrs by HPLC-MS/MS analysis. In kind it is ADME, organism-based. The note with it: read-out: beta t1/2 (converted).
Data set [18] is filed under the species Rattus norvegicus. Briefly: Displacement of [3H]quinuclidinyl benzilate from Wistar rat cortex muscarinic AChR at 3 uM by liquid scintillation counting analysis relative to control. The class given is tissue-based.
The nature of data set [19]: Stability in rat microsomes. The class given is ADME, Microsome.
Data set [20] is described as follows: Volume of distribution in Wistar rat at 3 mg/kg, po or iv measured upto 5 hrs by HPLC-MS/MS analysis. In kind it is ADME, organism-based. The settings on record: in vivo.
Data set [21] can be described thus: Ratio AUC in Wistar rat brain to plasma at 3 mg/kg, po or iv measured upto 5 hrs by HPLC-MS/MS analysis. In kind it is ADME, organism-based. The settings on record: brain and plasma, read-out: Ratio AUC.
In data set [22] the test system is Rattus norvegicus. Briefly: Anti-dipsogenic activity in imetit-induced Wistar rat model assessed as inhibition of imetit-induced water intake at 10 mg/kg, po preadministered for 30 mins followed by imetit stimulation and measured after 40 mins relative to control. The note with it: 1.167 h, time 70 min. In kind it is functional.
Data set [23] addresses T1, Histamine H3 receptor. As to the kind of experiment: Inverse agonist activity at recombinant human histamine H3 receptor expressed in CHO-K1 cells assessed as maximal efficacy preincubated for 10 mins followed by [35S]GTPgammaS addition and measured after 60 mins by TopCount NXT based scintillation analysis relative to control. In kind it is cell-based. The settings on record: time 70.0 min.

A short description of data set [24]: Bioavailability in Wistar rat at 3 mg/kg, po or iv measured upto 5 hrs by HPLC-MS/MS analysis. The class given is ADME, organism-based. The settings on record: in vivo.
Data set [25] is described as follows: Apparent permeability in vinblastine treated human CaCo-2 cells. The class given is ADME, cell-based. For orientation: Caco-2 cells form a polarised layer with tight junctions and transporters.
Data set [26] can be described thus: Thermodynamic […] of the compound measured after 24 hrs by HPLC-UV-MS analysis. The class given is physicochemical. The settings on record: read-out: Therm_solubility.

Results on three molecules are retold here after ChEMBL document CHEMBL5260820, “Discovery of novel steroidal histamine H3 receptor antagonists/inverse agonists” (Bioorg Med Chem Lett, 2017).

The structures appear in SMILES notation. In brackets after ≈: the same amount, converted by molar mass.

T1 sequence (Q9Y5N1 whole entry): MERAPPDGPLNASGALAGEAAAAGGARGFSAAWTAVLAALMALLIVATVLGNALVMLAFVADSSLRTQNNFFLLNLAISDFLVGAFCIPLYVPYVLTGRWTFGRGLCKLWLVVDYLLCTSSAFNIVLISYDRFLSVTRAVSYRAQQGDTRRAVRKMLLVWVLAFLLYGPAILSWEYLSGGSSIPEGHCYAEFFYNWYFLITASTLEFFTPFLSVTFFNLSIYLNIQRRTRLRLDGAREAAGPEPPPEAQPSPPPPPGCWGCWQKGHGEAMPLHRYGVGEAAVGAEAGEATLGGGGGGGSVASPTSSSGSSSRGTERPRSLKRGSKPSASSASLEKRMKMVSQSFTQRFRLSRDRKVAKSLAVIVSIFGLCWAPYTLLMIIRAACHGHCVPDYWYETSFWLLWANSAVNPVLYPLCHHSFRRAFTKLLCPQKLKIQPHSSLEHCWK
Chain of Histamine H3 receptor (Rattus norvegicus, UniProt Q9QYN8) (Q9QYN8 whole entry): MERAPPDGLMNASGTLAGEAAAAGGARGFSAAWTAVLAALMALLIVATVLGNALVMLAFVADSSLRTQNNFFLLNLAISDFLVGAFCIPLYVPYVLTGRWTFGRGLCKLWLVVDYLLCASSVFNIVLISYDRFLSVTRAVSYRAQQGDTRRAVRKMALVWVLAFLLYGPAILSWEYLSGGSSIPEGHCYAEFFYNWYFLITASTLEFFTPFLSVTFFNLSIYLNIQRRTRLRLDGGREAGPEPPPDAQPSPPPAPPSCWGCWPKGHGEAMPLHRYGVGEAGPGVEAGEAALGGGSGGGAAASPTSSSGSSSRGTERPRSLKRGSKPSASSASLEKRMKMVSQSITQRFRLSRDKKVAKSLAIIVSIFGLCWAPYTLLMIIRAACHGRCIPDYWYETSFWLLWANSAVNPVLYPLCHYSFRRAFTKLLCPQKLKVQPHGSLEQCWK
Chain of Estrogen receptor beta (Homo sapiens) (Q92731 whole entry): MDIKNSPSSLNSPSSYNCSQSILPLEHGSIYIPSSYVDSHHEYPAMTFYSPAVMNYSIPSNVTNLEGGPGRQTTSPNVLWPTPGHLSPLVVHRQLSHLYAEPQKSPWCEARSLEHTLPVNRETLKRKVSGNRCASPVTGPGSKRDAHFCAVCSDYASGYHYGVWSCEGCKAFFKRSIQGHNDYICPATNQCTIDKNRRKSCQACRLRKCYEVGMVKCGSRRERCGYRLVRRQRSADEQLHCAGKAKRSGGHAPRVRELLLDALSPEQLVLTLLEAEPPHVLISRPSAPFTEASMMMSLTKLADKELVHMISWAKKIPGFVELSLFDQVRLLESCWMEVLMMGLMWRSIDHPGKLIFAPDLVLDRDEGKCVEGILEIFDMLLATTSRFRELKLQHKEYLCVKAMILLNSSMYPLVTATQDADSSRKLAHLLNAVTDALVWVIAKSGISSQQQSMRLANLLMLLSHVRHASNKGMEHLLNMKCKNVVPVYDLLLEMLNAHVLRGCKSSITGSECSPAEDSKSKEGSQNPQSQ
Chain of Histamine H2 receptor (Homo sapiens) (P25021 whole entry): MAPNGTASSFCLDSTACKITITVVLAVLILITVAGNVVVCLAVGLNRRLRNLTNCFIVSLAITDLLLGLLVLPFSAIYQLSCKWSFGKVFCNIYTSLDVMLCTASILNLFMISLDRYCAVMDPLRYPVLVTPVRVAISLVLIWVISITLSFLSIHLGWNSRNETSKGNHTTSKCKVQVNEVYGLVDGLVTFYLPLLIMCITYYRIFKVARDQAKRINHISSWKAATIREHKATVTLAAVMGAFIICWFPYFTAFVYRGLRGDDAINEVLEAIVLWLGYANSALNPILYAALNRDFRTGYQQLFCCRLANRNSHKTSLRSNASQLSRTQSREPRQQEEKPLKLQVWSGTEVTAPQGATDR
Chain of Histamine H1 receptor (Homo sapiens) (P35367 whole entry): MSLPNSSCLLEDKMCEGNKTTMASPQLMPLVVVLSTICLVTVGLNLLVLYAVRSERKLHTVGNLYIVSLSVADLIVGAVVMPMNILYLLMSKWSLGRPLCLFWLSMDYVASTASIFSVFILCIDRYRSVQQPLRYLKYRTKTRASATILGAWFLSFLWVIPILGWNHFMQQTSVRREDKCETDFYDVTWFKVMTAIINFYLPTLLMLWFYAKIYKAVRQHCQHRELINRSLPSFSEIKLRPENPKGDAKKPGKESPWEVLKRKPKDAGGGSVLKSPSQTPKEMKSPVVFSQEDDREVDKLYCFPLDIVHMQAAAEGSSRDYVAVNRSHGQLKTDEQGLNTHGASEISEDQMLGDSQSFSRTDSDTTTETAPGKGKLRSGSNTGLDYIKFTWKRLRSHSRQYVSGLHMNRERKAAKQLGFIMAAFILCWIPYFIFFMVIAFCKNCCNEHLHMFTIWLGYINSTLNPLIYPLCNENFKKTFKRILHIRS
Chain of Histamine H4 receptor (Homo sapiens) (Q9H3N8 whole entry): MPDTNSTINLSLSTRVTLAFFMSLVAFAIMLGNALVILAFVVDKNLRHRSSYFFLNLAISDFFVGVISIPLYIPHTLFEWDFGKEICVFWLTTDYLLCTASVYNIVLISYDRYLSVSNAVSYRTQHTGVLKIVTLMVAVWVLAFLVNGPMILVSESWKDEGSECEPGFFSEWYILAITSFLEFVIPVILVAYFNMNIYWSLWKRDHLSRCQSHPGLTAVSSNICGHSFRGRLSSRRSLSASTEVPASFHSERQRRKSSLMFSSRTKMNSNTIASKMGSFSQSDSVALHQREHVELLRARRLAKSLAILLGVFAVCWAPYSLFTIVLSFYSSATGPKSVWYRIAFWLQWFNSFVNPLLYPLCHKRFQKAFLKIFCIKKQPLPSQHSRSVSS
Chain of Histamine H3 receptor (Rattus norvegicus) (Q9QYN8 whole entry): as the sequence (Q9QYN8 whole entry) above

On to `C[C@]12CC[C@@H]3c4ccc(OCCCN5CCCC5)cc4CC[C@H]3[C@@H]1CC[C@@H]2N1CCCC1`, for which the Activity in the data set filed under Rattus norvegicus [1] was determined as 74%; in [2], 26%; in [4], 64%; in data set [5], 19%; in [8] it was 44%; in data set [9], 36%. Moreover, the IC50 on Histamine H3 receptor [3] was 6.1 nM. Further, the Ki was found to be 2.4 nM at Histamine H3 receptor [6], 110 nM in data set [7] and 0.6 nM at Histamine H3 receptor [11]. For the same molecule, the EC50 on Histamine H3 receptor [10] amounted to 0.1 nM.

For the molecule `C[C@H]1[C@H]2CC[C@H]3[C@@H]4CC=C5C[C@@H](N(C)C)CC[C@]5(C)[C@H]4CC[C@]23CN1C`, the Activity in the data set listed under Rattus norvegicus [1] stood at 84%; in data set [12] it was 34%.

Regarding `C[C@]12CC[C@@H]3c4ccc(OCc5ccccn5)cc4CC[C@H]3[C@@H]1CC[C@@H]2N1CCCC1`, in data set [13], the Ratio Ki amounted to 141. Further, the IC50 on Histamine H3 receptor [3] stood at 50.8 nM. The Stability in [14] was 93%; in [19] it was 67%. The half-life in data set [15] and in data set [17] was 1.5 h in each case. Moreover, in data set [16], the Tmax was found to be 1 h. The same molecule yielded an Activity in the data set listed under Rattus norvegicus [18] of 51%. In data set [20], this molecule displayed a Vd of 19.7 L/kg. The Kp at 5 h in [21] was 41.1. Besides, the Ki on Histamine H3 receptor [6] was 7.6 nM; in [7], 1080 nM; at Histamine H3 receptor [11] it was 2.2 nM. Besides, the EC50 on Histamine H3 receptor [10] was found to be 1 nM. In the data set on Rattus norvegicus [22], the inhibition in vivo at 10 mg/kg worked out at 122%. Moreover, at Histamine H3 receptor [23], the Emax is 23%. Also, in data set [24], the bioavailability was 25.4%. In data set [25], the Papp stood at 10.1 ×10⁻⁶ cm/s. In addition, the solubility thermodynamic at 24 h in data set [26] was 93 µM (≈ 38.7 µg/mL).

Usually IC50 stands for the concentration that gives 50% inhibition. In general, Ki refers to a measure of affinity in units of concentration, obtained from inhibition or displacement. By EC50 is commonly meant the concentration at which the effect is half-maximal. What is called Tmax is the time at which the peak concentration occurs. Broadly, the inhibition in vivo is the relative decrease from the control value, in per cent. As a reminder, the Emax is the greatest response seen or fitted, relative to the assay's reference. As a reminder, the bioavailability is dose-corrected exposure relative to a reference, in per cent. A higher bioavailability goes with good availability. Usually Papp stands for a coefficient for how fast a substance crosses the barrier.
